Consider two compounds from PMC10482942, “Novel quinazoline-1,2,3-triazole hybrids with anticancer and MET kinase targeting properties” (Scientific Reports, 2023).

Each structure is given as a SMILES string.

The test system of experiment [1] is MET phosphorylation in AsPC-1 cells. The experiment is described as follows: MET phosphorylation by western blot analysis. In kind it is cell-based, human. The settings on record: 10 and 25 μM, 3 h. As for the experimental part: The effect of synthetic compounds on MET phosphorylation in AsPC-1 cells was investigated by western blot analysis. At first, the AsPC-1 cells were seeded in 6-well plates at a density of 250,000 cells/ml and incubated at 37 °C for 24 h. The cultured cells were then treated with the synthetic compounds at different concentrations for 3 h. Then, the cells were harvested via addition of ice-cold RIPA lysis buffer (20 mM Tris base, 150 mM NaCl, 1% Np40, 1 mM EDTA, […] and 0.1% SDS, pH 8.0) containing […] (PMSF; SigmaAldrich), 10 mM Na4O7P2 and 2 mM Na3VO4 and by use of scrapers. Also, PMSF and a protease inhibitor cocktail (Roche) were added to the extraction buffer to prevent the breakdown of the proteins. […] Protein contents of the cell extracts were measured by a bicinchoninic acid protein assay kit (Quanti-Pro BCA, Sigma–Aldrich, St. Louis, USA) using bovine serum albumin as the protein standard. […] Proteins were then detected by incubation with specific primary antibodies, rabbit monoclonal anti-p-MET (dilution 1:1000, catalogue number: 3126, Cell Signaling, Danvers, MA), and rabbit monoclonal anti-MET (dilution 1:1000, catalogue number: 4560, Cell Signaling, Danvers, MA) overnight at 4 °C. […] The band intensities were calculated with the software Gene Tools (SyneGene, Cambridge, UK) for Windows.

Experiment [2] deals with T1, MTOR (h) (Homo sapiens, UniProt P42345).
T1 construct: purchased Eurofins Discovery
Briefly: Radiometric kinase panel assay. To be noted: Km ATP. In kind it is biochemical.

For experiment [3], the target named is T2, CDK4/cyclinD3 (h) (Homo sapiens, UniProt P11802).
T2 construct: purchased Eurofins Discovery
T2 sequence (P11802 whole entry): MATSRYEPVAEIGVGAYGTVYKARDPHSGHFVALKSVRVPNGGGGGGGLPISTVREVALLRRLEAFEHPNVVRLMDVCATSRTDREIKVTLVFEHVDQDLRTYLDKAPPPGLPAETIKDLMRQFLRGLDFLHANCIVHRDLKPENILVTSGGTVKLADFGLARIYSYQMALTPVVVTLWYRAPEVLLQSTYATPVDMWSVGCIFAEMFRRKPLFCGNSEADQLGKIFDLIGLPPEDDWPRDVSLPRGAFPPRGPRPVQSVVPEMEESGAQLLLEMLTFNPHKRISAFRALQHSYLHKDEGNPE
T2 sequence (P30281 whole entry partner): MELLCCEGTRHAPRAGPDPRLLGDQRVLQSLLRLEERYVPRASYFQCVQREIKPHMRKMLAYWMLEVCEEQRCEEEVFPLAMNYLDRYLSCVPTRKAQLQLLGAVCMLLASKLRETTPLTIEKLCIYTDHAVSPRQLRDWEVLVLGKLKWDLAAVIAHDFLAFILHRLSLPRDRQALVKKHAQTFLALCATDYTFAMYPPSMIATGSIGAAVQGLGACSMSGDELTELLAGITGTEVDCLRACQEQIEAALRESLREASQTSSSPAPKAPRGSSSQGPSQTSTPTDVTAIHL
Briefly: Radiometric kinase panel assay. It counts as biochemical. To be noted: Km ATP.

Experiment [4] has as its target T3, PDGFRB (h) (Homo sapiens, UniProt P09619).
T3 construct: purchased Eurofins Discovery
The experiment is described as follows: Radiometric kinase panel assay. In kind it is biochemical. The settings on record: Km ATP.

Experiment [5] has as its target T4, FMS (h) (Homo sapiens, UniProt P07333).
T4 construct: purchased Eurofins Discovery
Briefly: Radiometric kinase panel assay. It counts as biochemical. The settings on record: Km ATP.

T4 sequence (P07333 20-972): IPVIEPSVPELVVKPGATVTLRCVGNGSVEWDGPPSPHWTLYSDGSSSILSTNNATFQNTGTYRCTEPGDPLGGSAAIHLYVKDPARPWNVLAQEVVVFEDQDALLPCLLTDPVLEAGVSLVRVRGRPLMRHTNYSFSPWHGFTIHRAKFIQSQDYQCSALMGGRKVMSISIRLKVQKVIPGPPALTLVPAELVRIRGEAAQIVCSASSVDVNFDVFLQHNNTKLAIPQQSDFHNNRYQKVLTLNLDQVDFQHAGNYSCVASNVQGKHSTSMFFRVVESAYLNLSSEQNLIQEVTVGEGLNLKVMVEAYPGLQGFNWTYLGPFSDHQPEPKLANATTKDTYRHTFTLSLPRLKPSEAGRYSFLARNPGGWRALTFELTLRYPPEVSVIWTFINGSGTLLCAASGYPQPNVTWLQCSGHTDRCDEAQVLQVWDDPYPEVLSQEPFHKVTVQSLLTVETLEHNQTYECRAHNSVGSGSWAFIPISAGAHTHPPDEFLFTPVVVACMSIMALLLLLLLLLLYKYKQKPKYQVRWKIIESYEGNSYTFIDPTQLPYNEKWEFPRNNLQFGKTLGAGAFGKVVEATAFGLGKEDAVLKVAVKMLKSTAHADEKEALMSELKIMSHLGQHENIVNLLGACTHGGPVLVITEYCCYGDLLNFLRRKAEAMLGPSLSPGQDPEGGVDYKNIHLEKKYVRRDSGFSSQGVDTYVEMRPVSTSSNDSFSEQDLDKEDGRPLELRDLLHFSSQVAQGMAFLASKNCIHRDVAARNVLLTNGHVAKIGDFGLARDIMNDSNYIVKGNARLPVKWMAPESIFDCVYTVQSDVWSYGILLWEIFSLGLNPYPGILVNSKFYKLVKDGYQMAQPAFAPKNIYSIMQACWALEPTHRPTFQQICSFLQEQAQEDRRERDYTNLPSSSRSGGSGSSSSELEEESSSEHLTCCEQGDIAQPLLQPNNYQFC
T3 sequence (P09619 33-1106): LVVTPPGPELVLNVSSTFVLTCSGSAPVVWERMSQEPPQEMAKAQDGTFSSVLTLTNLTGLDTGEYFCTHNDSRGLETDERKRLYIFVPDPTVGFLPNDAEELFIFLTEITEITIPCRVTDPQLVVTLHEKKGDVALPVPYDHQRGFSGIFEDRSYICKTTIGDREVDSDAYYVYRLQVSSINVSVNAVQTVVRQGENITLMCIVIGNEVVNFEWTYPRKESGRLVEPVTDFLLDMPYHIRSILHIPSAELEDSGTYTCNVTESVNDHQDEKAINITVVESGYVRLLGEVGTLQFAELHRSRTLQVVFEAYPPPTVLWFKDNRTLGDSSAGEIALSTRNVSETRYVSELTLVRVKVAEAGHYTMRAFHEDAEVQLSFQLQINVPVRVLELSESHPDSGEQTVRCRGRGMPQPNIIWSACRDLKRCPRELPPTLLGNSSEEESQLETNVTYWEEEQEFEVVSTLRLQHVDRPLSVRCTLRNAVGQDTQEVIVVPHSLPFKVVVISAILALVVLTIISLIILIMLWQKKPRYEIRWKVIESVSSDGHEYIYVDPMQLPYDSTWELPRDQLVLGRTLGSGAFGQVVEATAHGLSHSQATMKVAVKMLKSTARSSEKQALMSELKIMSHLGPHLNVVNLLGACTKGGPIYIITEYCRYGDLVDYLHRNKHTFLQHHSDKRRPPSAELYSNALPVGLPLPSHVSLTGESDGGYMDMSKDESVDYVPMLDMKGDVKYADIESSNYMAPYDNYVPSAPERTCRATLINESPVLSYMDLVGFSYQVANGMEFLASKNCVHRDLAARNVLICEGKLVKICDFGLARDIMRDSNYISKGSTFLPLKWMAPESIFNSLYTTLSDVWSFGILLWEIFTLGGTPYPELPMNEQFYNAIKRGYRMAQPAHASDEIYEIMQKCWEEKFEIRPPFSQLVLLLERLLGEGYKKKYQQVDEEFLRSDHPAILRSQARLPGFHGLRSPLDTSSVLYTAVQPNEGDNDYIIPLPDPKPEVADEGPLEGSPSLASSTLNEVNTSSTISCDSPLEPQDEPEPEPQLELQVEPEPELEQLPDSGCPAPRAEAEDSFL

The inhibition is the percentage by which the read-out fell short of the control. Low readings indicate little suppression, high ones strong suppression. Regarding `Cc1ccc(Cn2cc(COc3ccc(C=NNc4ncnc5ccccc45)cc3)nn2)cc1` [Compound 8c, 2-(4-((1-(4-Methylbenzyl)-1H-1,2,3-triazol-4-yl)methoxy)benzylidene)-1-(quinazolin-4-yl)hydrazine], the “Effect on MET phosphorylation” value in experiment [1] is reported as “significant suppression of MET phosphorylation”. Besides, the inhibition at 10 µM in experiment [2] is 3%; in experiment [3] it was 2%.
On to `CC(C)(C)c1ccc(Cn2cc(COc3ccc(C=NNc4ncnc5ccccc45)cc3)nn2)cc1` [Compound 8h, 2-(4-((1-(4-Tert-butylbenzyl)-1H-1,2,3-triazol-4-yl)methoxy)benzylidene)-1-(quinazolin-4-yl)hydrazine], for which the figures for the inhibition at 10 µM in experiment [4] and in experiment [5] were 7% and 0%, respectively.
